Experimental findings from US20040039060A1, “Inhibitor for enzyme having two divalent metal ions as active centers” (priority 2000, published 2004) are described below.

Read-outs that look alike come from different tables or passages of the source.

One series has as its target HIV-1 integrase (Human immunodeficiency virus type 1 group M subtype B, UniProt P04585). Description: HIV-1 integrase inhibition assay (microtiter plate, immobilised substrate DNA, Dig-labelled target DNA, OD 405 nm). The class given is biochemical. Here is the method:
Substrate DNA and target DNA, which sequences were indicated below, were synthesized by Amersham Pharmacia Biotech and dissolved in KTE buffer (composition: 100 mM KCl, 1 mM EDTA, 10 mM Tris-HCl (pH 7.6)) at concentration of 2 pmol/μl and 5 pmol/μl, respectively. The DNA solutions were annealed with each complement by slowly cooling after heating.
Streptavidin, obtained from Vector Laboratories, was dissolved in 0.1 M carbonate buffer (composition: 90 mM Na2CO3, 10 mM NaHCO3) at concentration of 40 μg/ml. After coating each well of microtiter plates (obtained from NUNC) with 50 μl of the above solution at 4° C. overnight, each well was washed twice with PBS (composition: 13.7 mM NaCl, 0.27 mM KCl, 0.43 mM Na2HPO4, 0.14 mM KH2PO4) and blocked with 300 μl of 1% skim milk in PBS for 30 min. Additionally, each well was washed twice with PBS and added 50 μl of substrate DNA solution (2 pmol/μl). The microtiter plates were kept at room temperature for 30 min. Then, each well was washed twice with PBS and once with H2O.
Subsequently, in the each well prepared above were added 45 μl of the reaction buffer prepared from 12 μl of the buffer (composition: 150 mM MOPS (pH 7.2), 75 mM MnCl2, 50 mM 2-mercaptoethanol, 25% glycerol, 500 μg/ml bovine serum albumin-fraction V), 1 μl of target DNA (5 pmol/μl), and 32 μl of the distilled water. Additionally, 6 μl of either a test compound in DMSO or DMSO for positive control(PC) was mixed with the above reaction buffer, then 9 μl of an integrase solution (30 pmol) was added and mixed well. In the well of negative control (NC) was added 9 μl of the integrase dilution buffer (composition: 20 mM MOPS (pH7.2), 400 mM potassium glutamate, 1 mM EDTA, 0.1% NP-40, 20% glycerol, 1 mM DTT, 4M urea).
The microtiter plates were incubated at 30° C. for 1 hour. The reaction solution was removed and each well was washed twice with PBS. Subsequently, each well of the microtiter plates was filled with 100 μl of anti-digoxigenin antibody labeled with alkaline phosphatase (Sheep Fab fragment: obtained from Boehringer) and incubated at 30° C. for 1 hour. Then, each well was washed twice with 0.05% Tween20 in PBS and once with PBS. Next, 150 μl of the Alkaline phosphatase reaction buffer (composition: 10 mM p-Nitrophenylphosphate (obtained from Vector Laboratories), 5 mM MgCl2, 100 mM NaCl, 100 mM Tris-HCl (pH 9.5)) was added in each well. […] The optical density (OD) at 405 nm of each well was measured and the percent inhibition was determined by the following expression.
The percent inhibition (%)=100[1-{(C abs.−NC abs.)/(PC abs.−NC abs.)}]
When the percent inhibition (%) is X % at the concentration of x μg/ml and the percent inhibition (%) is Y % at the concentration of y μg/ml, one of which is more than 50% and the other is less than 50%, IC50 can be determined by the following expression.
IC50(μg/ml)=x-{(X-50)(x-y)/(X-Y)}
Compound No. in the Table 1 is the same as compound No. of the above example.

A short description of series [1]: UV spectrum measurement with stepwise addition of Mg2+ solution (chelate formation). The format is physicochemical. Conditions: compound 0.05 mmol/l, Mg2+ 0 to 3.6 mol/l, 240 nm to 500 nm, cell length 1 cm. Here is the method:
Compounds C-1, D-2, D-5 and D-6 were employed to determine UV spectra with treating dropwise with metal solutions.
The UV spectrum measurement was conducted with the cell length of 1 cm at a wavelength of 240 nm to 500 nm. Each test solution was obtained by preparing Solutions A^1, A2, B and C as shown below, adding an indicated volume of Solution A^1 or A2 to 1 ml of Solution B, making the total, volume 10 ml with Solution C. The concentrations of Compounds C-1, D-2, D-5 and D-6 in test solutions here were all adjusted at 0.05 mmol/l, and the concentrations of Mg^2+ were as indicated in Table 5.
Solution A1: MgCl2 4 mol/l, MOPS 50 mmol/l, NaOH 23.6 mmol/l, Solvent: Water
Solution A2: MgCl2 1 mol/l, MOPS 50 mmol/l, NaOH 23.6 mmol/l, Solvent: Water
Solution B: Compound 1 0.5 mmol/l, Solvent: DMSO
Solution C: NaCl 3 mol/l, MOPS 50 mmol/l, 23.6 mmol/l, Solvent: Water
For the purpose of indicating the change in the UV spectrum as a result of the increase in the metal ion concentration, one figure contained each UV spectrum curve at various metal ion concentrations.

The nature of series [2]: UV spectrum measurement with monovalent ions Na+ and K+. The format is physicochemical.
Where [3] appears, read: concentration of the compound at percent inhibition 50%, MnCl2 buffer, 30° C., 1 hour.

The IC50 is the concentration that inhibits the measured activity by half.

For `O=C(O)/C(O)=C/c1cc(CCc2ccccc2)ncn1` [Compound C-1], the IC50 on HIV-1 integrase was 5.55 µM. Further, the “change in the UV spectrum curve as the metal ion concentration was increased” value in series [1] is recorded as 2-step change. For the same compound, the “change in the UV spectrum curve” value in series [2] is on record as “almost no change”.
Compound `O=C(O)/C=C/c1cc(CCc2ccccc2)ncn1` [Compound D-2] displayed an IC50 on HIV-1 integrase (setting [3]) above 100 µg/mL. In addition, the “change in the UV spectrum curve as the metal ion concentration was increased” value in series [1] is on record as “no change”.
The like results for `O=C(O)C(O)=Cc1ccnc(CCc2ccccc2)c1` [Compound D-5] were, in that order, above 100 µg/mL and 1-step change.
At HIV-1 integrase, `OC(=Cc1cc(CCc2ccccc2)ncn1)c1ccccc1` [Compound D-6] registered an IC50 above 331 µM. In addition, the “change in the UV spectrum curve as the metal ion concentration was increased” value in series [1] is recorded as 1-step change.
